Source: US5763249A, “Antibody-mediated reduction of α-ketoamides” (The Regents of the University of California, priority 1991, dated 1998)

Assays:
[1] = molecular target: monoclonal antibody A5, specific for (raised against) the phosphonate hapten 3; assay: Fluorescence quenching binding of inhibitor to antibody A5; conditions: from fluorescence quenching experiments; inhibitor of the antibody-catalyzed reaction
Experimental: (§1) Greater than 25 turnovers were measured with no apparent change in Vmax.

[2] = system: monoclonal antibody A5, specific for (raised against) the phosphonate hapten 3; assay: Antibody A5-catalysed NaBH3CN-dependent reduction of ketoamide 1, steady-state kinetics (HPLC, Lineweaver Burk); assay type: biochemical; conditions: substrate ketoamide 1; 13μM antibody, 1mM NaBH3CN, 22° C, 50mM NaCl, 50mM MES buffer, 10% methanol
Experimental: Monoclonal antibodies specific for the phosphonate 3 were purified to homogeneity by chromatography on protein-A coupled sepharose, as determined by polyacrylamide gel electrophoresis. Eight of these antibodies were assayed for their ability to reduce the ketoamide 1 by high performance liquid chromatography (HPLC). The (S)-(--)-α-methylbenzylamine group was incorporated into the ketoacid substrate to facilitate analysis of reaction specificity, it having previously been shown that antibodies specific for the phosphonate 3 are relatively insensitive to substitutions in the aliphatic linker. The ketoamide 1 was prepared by a modification of the method of Westerberg and coworkers (Westerberg, D.A., et aL, J. Med Chem. 1989, 32, 236) for the preparation of 4-nitrophenylpyruvic acid. […]
Consequently, all kinetic parameters were measured in the presence of 13μM antibody, 1mM NaBH3 CN at 22° C in 50mM NaCl, 50mM MES buffer. […] Initial reaction rates were determined by measuring the amounts of 1 and 2 (both diastereomers) relative to a p-cresol internal standard using analytical reverse-phase HPLC (Rainin CYNAMAX MICROSORB C18, a common silica-C18 HPLC column packing, with a continuous phase consisting of 40-80% of TFA/CH3 CN in 0.1% aqueous TFA).
as §1

| SMILES | Kd [1] [µM] | Km [2] [µM] | κcat [2] [min⁻¹] |
| --- | --- | --- | --- |
| COP(=O)(O)Oc1ccc([N+](=O)[O-])cc1 [4-nitrophenyl methylphosphate] | 0.61 |  |  |
| CC(NC(=O)C(=O)Cc1ccc([N+](=O)[O-])cc1)c1ccccc1 (stereo not drawn) [compound 1, 1-(p-nitrobenzyl)-2-(α-methyl-benzylamino)ethanedione] |  | 1240 | 0.104 |
